# Test results taken from PMC5635289, “Differential Effects of Angelicin Analogues on NF-κB Activity and IL-8 Gene Expression in Cystic Fibrosis IB3-1 Cells” (Mediators of Inflammation, 2017).
# Experiments:
# IB3-1 cells = experiment: Cell proliferation assay on IB3-1 cells; format: cell-based; details: Homo sapiens, cell number/ml after 48 h of treatment
# Description: Monolayers of 60% confluent IB3-1 cells were seeded in 24- or 12-well plates in LHC-8 medium in the presence of 5% FBS. After 24 h, TMA derivatives were added at serial dilutions and incubated for further 2-3 days. The effects of compounds (TMA derivatives) on the cell proliferation were analyzed as elsewhere described. A first analysis was performed with serial dilutions to obtain 50 μM, 200 μM, and 800 μM solutions. In order to determine IC50 values, the following concentrations were used 12.5, 25, 50, 100, 200, and 800 μM. In order to prepare the cells for counting, they were washed with PBS 1X and detached with trypsin/EDTA. Cells were suspended in physiological solution and counted with a Z2 Coulter Counter (Coulter Electronics, Hialeah, FL, USA). The cell number/ml was determined as IC50 after 2 days of culture, when untreated cells are in log phase of cell growth.
# In order to obtain preliminary information on the biological properties of TMA derivatives, their effects on cell growth were examined on IB3-1 cell line, excellent biological model to study new potential anti-inflammatory molecules. The use of this cell line to study the expression of proinflammatory molecules under a variety of stimuli is well established. Monolayers of 60% confluent IB3-1 cells were seeded in 12-well plate in LHC-8 medium with 5% FBS. After 24 h, compounds were added at different concentrations and the cell number/ml was determined after further 48 h of culture.
# NF-κB p50 = target: T1, NF-κB p50 (Homo sapiens, UniProt P19838); experiment: EMSA, inhibition of NF-κB/DNA interactions; format: binding; details: NF-κB p50 and 32P-labeled NF-κB oligonucleotide, MIC = minimal inhibitory concentration, 12.5 μM was the lowest concentration used
# T1 construct: This assay was performed using purified NF-κB p50; purchased Promega
# T1 sequence (P19838 1-433 limits assumed): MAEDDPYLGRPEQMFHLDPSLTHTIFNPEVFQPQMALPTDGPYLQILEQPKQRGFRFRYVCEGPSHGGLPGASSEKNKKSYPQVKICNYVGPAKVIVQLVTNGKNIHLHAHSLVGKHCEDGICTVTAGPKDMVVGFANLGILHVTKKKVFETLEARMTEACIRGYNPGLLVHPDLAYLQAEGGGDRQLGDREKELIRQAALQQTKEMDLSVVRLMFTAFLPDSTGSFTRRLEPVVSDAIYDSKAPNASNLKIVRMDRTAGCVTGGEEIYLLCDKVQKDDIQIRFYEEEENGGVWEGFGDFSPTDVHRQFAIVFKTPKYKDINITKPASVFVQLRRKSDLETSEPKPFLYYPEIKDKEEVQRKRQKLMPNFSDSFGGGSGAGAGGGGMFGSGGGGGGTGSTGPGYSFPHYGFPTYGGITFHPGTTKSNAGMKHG
# Description: Electrophoretic mobility shift assays were performed using double-stranded ^32P-labeled oligonucleotides as target DNA. Binding reactions were set up as previously described in binding buffer (10% glycerol, 0.05% NP-40, 10 mM Tris-HCl pH 7.5, 50 mM NaCl, 0.5 mM DTT, and 10 mM MgCl2), in the presence of 0.1 μl/20 μl of NF-κB p50 (50 gsu) (Promega, Madison, WI, USA) and 0.25 ng of labeled oligonucleotide, in a total volume of 20 μl. After 30 min binding at room temperature, samples were electrophoresed at constant voltage (200 V for 30 min) through a low ionic strength (0.25 TBE buffer) (1 TBE/40.089 M Tris-borate, 0.002 M EDTA) on 6% polyacrylamide gels until the tracking dye (bromophenol blue) reached the bottom of a 16 cm slab. Gels were dried and exposed for autoradiography with intensifying screens at […]. In these experiments, DNA/protein complexes migrate through the gel with slower efficiency. In studies on the inhibitors of protein/DNA interactions, addition of the reagents was as follows: (i) nuclear factors, (ii) active principles, (iii) binding buffer, and (iv) labeled oligonucleotides mimicking the binding sites for TF to be modulated. The nucleotide sequence of double-stranded target DNA utilized in these experiments was 5′-CGC TGG GGA CTT TCC ACG G-3′ (sense strand, NF-κB). The synthetic oligonucleotides utilized in this study were purchased from Sigma Genosys (Sigma Genosys, Cambs, UK). To calculate the effective concentrations, three different autoradiograms obtained from different time exposures were scanned and compared to control EMSA performed without addition of angelicin analogues (two independent experiments were performed).
# The effects of TMA derivatives on NF-κB- (nuclear factor-kappaB-) mediated induction of proinflammatory genes was verified first in vitro by electrophoretic mobility shift assay (EMSA) with the aim to verify and quantify the possible inhibition of NF-κB/DNA interactions. This assay was performed using purified NF-κB p50 and ^32P-labeled target NF-κB double-stranded oligonucleotide mimicking the NF-κB consensus sequence present within the IL-8 gene promoter.
# IL-8 mRNA = experiment: RT-qPCR quantification of IL-8 mRNA in TNF-α-induced IB3-1 cells; format: cell-based, human; details: for inhibition at 1 µM / inhibition at 10 µM: Homo sapiens, IB3-1, 24 h, TNF-α-induced IB3-1 cells, RT-qPCR, na = not active at the used concentrations; for inhibition at 1 µM: 1 μM compound; for inhibition at 10 µM: 10 μM compound
# Description: Monolayers of 60% confluent IB3-1 cells were seeded in 6- or 12-well plates in LHC-8 medium in the presence of 5% FBS. After 24 h, pure derivatives were added, 5 h before stimulation with TNF-α 80 ng/ml (ORF Genetics, Kopavogur, Iceland), and incubated for a further 24 h. Total RNA was extracted using TRIzol Reagent (Sigma-Aldrich, St. Louis, MO) following the manufacturer's instructions. Reverse transcription (RT) was performed using Reverse Transcription System kit (Promega, Madison, WI): 1 μg of total RNA was reverse transcribed in the presence of 5 mM MgCl2, 1X reverse transcription buffer (10 mM Tris-HCl, 50 mM KCl, and 0.1% Triton X-100), 1 mM each dNTPs, 20 U recombinant Rnasin Ribonuclease Inhibitor, 15 U AMV Reverse Transcriptase, and 0.5 μg oligo(dT)15 primers in a total volume of 20 μl for 10 min at 70°C and 60 min at 42°C. The resulting cDNA was quantified by relative quantitative real-time PCR (real-time qPCR). For real-time qPCR, 1 μl of cDNA was used for each SYBR Green reaction to quantify the relative expression of IL-8. Each 25 μl of total reaction volume contained 1 μl of cDNA, 10 pmol of primers, 1 iQTM SYBR Green Supermix (Bio-Rad Laboratories Inc., Hercules, CA). Real-time PCRs were performed for a total of 40 cycles (denaturation, 95°C for 10 s; annealing, 68°C for 30 s for IL-8, 65°C for 30 s for IL-6; elongation, 72°C for 60 s) using an iCycler IQ5 (Bio-Rad Laboratories Inc., Hercules, CA). Primer sequences were as follows: IL-8 forward: 5′-GTGCAGTTTTGCCAAGGAGT-3′ and IL-8 reverse: 5′-TTATGAATTCTCAGCCCTCTTCAAAAACTTCTC-3′. The relative proportions of each amplified template were determined utilizing the threshold cycle (CT) value for each performed PCR. The DDCt method was used to compare gene expression data. Each sample was quantified in duplicate. Changes in mRNA expression level were calculated following normalization with the GAPDH calibrator gene (housekeeping gene) and expressed as fold change over untreated samples [24]. Duplicates of negative controls (no template cDNA) were also run with every experimental plate to assess specificity and indicate potential contamination.
# With the aim to study the effective anti-inflammatory properties of these new psoralen derivatives, we decided to further characterize the TMA derivatives for their potential activities on the expression of IL-8 gene, known to be involved in the lung inflammatory process in CF. […] More specifically, we were first interested in identifying compounds with low antiproliferative activity, but effective in downmodulating inflammatory gene expression without achieving a full suppression of these genes. We therefore employed IB3-1 cystic fibrosis cells, incubated for 5 h with two concentrations (1 μM and 10 μM) of selected compounds, and then treated with TNF-α ([…]). In the IB3-1 cystic fibrosis cellular model, NF-κB-dependent genes, including the gene encoding for the proinflammatory protein IL-8, generally are activated following infection with P. aeruginosa or treatment with TNF-α or IL-1β [26, 28, 31]. This feature is very important in the pathophysiology of CF, since several clinical complications are caused by exacerbation of this inflammatory response. After 1 day of incubation, cellular RNA was isolated for RT-qPCR analysis. All the TMA analogues found to be active in inhibiting NF-κB/DNA interactions were analyzed for their effects on inhibition of TNF-α-induced accumulation of IL-8 mRNA.
Structure (SMILES),IC50 (IB3-1 cells) [µM],Inhibition of NF-κB/DNA complex (MIC) (NF-κB p50) [µM],inhibition at 1 µM (IL-8 mRNA) [%],inhibition at 10 µM (IL-8 mRNA) [%],"Inhibition of IL-8 expression (range given) (IL-8 mRNA; IB3-1 cells, low concentrations (1–10 μM), concentration not specified per value)"
CC(=O)OCc1oc2c(C)cc3c(C)cc(=O)oc3c2c1C [Compound 2],> 800,> 100,–,–,–
COCc1oc2c(C)cc3c(C)cc(=O)oc3c2c1C [Compound 3],> 800,> 100,–,–,–
Cc1cc(=O)oc2c1cc(C)c1occc12 [Compound 4],> 800,75,–,–,–
Cc1cc(=O)oc2c1cc(C)c1occ(CBr)c12 [Compound 5],486,12.5 to 25,33,31,–
Cc1cc2ccc(=O)oc2c2c(C)coc12 [Compound 6],454,> 100,–,–,–
Cc1cc2c(C(F)(F)F)cc(=O)oc2c2c(C)coc12 [Compound 7],> 800,> 100,–,–,–
Cc1cc2c(CO)cc(=O)oc2c2c(C)coc12 [Compound 8],398,25 to 50,51,52,52–83%
COCc1cc(=O)oc2c1cc(C)c1occ(C)c12 [Compound 9],> 800,12.5,–,–,–
Cc1cc2c(CBr)cc(=O)oc2c2c(C)coc12 [Compound 10],< 50,< 12.5,–,–,–
Cc1cc(=O)oc2c1ccc1occ(C)c12 [Compound 11],182,> 100,–,–,–
Cc1cc(=O)oc2c1cc(Cl)c1occ(C)c12 [Compound 12],> 800,12.5,0,–,–
Cc1cc(=O)oc2c1cc(Br)c1occ(C)c12 [Compound 13],> 800,12.5,–,–,–
Cc1cc(=O)oc2c1cc(C)c1scc(C)c12 [Compound 14],> 800,> 100,–,–,–
COCc1cc(=O)oc2c1cc(C)c1scc(C)c12 [Compound 15],> 800,> 100,–,–,–
Cc1cc(=O)[nH]c2c1cc(C)c1occ(C)c12 [Compound 17],193,> 100,–,–,–
Cc1cc(=O)[nH]c2c1cc(C)c1oc(CO)c(C)c12 [Compound 18],> 800,–,–,–,–
Cc1cc(=O)n(C)c2c1cc(C)c1occ(C)c12 [Compound 19],131,–,–,–,–
Cc1cc(=O)oc2c3c(ccc12)OC(C)C3 (centres unmarked) [Compound 20],154,–,–,–,–
COC1Cc2c(ccc3c(C)cc(=O)oc23)O1 (centres unmarked) [Compound 21],678,–,–,–,–
Cc1cc(=O)oc2c3c(ccc12)OC(CBr)C3 (centres unmarked) [Compound 22],180,> 100,–,–,–
Cc1oc2c(C)cc3c(C)cc(=O)oc3c2c1CO [Compound 23],452,–,3,11,–
Cc1cc2c(CO)cc(=O)oc2c2cc(CO)oc12 [Compound 24],197,> 100,–,–,–
Cc1cc2c(o1)c(C)cc1c(CO)cc(=O)oc12 [Compound 25],551,25 to 50,–,–,–
Cc1cc(=O)oc2c1cc(C)c1[nH]nnc12 [Compound 31],> 800,25,–,–,–
Cc1cc2c(CO)cc(=O)oc2cc1O [Compound 37],> 800,12.5 to 25,–,–,–
